Data on 10 compounds can be found in US12033725B2, “Antimicrobial peptides and related methods” (GEORGE MASON UNIVERSITY, priority 2021, dated 2024).

In brackets after ≈: the same amount, converted by molar mass. Entries after “also recorded” stand apart in the source; their conditions may differ. Read-outs that look alike come from different tables or passages of the source. Bridge positions count the residues as written; N and C are the ends. Ends that are not written are not given here. Peptide text beside a SMILES is read from it.

In data set [1] the test system is S. aureus MRSA 33592. It counts as cell-based, Staphylococcus aureus. As to conditions: low salt, 10 mM sodium phosphate, 3 h. The procedure: (§1) Staphylococcus aureus ATCC 33592 (MDR) and BAA-1718, E. coli ATCC 51659 (MDR) and 4,157 were purchased from the American Type Culture Collection (Manassas, VA, United States). All strains are reference strains. Bacteria were grown in Tryptic Soy Broth (BD 211825), except E. coli 4157 which was grown in Nutrient Broth (Difco 234000), overnight in a shaking incubator (37 C). Bacteria were aliquoted, mixed with glycerol (final concentration of 20% of glycerol) and frozen at −80 C and enumerated via serial dilution and plating prior to experimentation.
The antimicrobial activity of the PHNX peptides and LL-37 (AnaSpec 61302) against bacteria was determined as previously described (Barksdale et al., 2016, 2017). Briefly, 1×10^5 CFU per well of bacteria were incubated with different peptide concentrations (n=3) in a 50-ul solution of 10 mM sodium phosphate buffer (3 h, 37 C). Serial dilutions were then prepared in 1× Dulbecco's PBS and 8 ul of each dilution was spotted in triplicate on Tryptic Soy Agar plates, which were incubated (37 C, 24 h) and CFUs were counted (Barksdale et al., 2016, 2017). Bacterial survival at each peptide concentration was calculated based on the ratio of the number of colonies on each experimental plate and the average number of colonies observed for assay cultures lacking peptide. The peptide concentration required to kill 50% of the viable bacteria in the assay cultures (EC5O) was determined by plotting percent survival as a function of the log of peptide concentration (log μg/ml) and fitting the data using GraphPad Prism 6 (GraphPad Software Inc., San Diego, CA, United States). For the purpose of graphing, samples that had no peptide (0 μg/ml) are plotted at 1×10^−7 μg/ml peptide. EC50 values were determined by fitting the data from the antimicrobial assays to a standard sigmoidal dose-response curve. […] Wells containing only 10 mM sodium phosphate buffer were used as sterility control.

The subject of data set [2] is E. coli O157:H7 51659. The data set is described as follows: Antibacterial screening at 100 μg/ml. It counts as cell-based, Escherichia coli. Conditions: for bactericidal activity: 100 μg/ml, MDR E. coli. The procedure: as §1
(§2) The antibacterial screening test of the peptides (n=3) was first determined at a final peptide concentration of 100 μg/ml and a final bacterial concentration of 5×10^5 CFU/mL in Difco Mueller Hinton Broth (BD 275730) in a 96 well plate. The plate was incubated for 16-20 h at 37 C and then read on a spectrophotometer at OD600 nm. […] Wells containing medium only were used as sterility control, in the wells around the edge of the plates. LL-37 was used as a control in the first run of experiments against the MDR bacterial strains (Turner et al., 1998). […] The sequence of BF-CATH was derived from DBAASP database listed as cathelicidin-BF-34 with the following sequence: […]

Data set [3] deals with S. aureus MRSA 33592. The data set is described as follows: Antibacterial screening at 100 μg/ml. Conditions: MDR S. aureus. Format: cell-based, Staphylococcus aureus. The procedure:
as §1, §2

In the next data set the test system is human red blood cells. The procedure:
To measure the hemolytic activity of peptides, 2% human red blood cells were added to various dilutions of peptide reconstituted in PBS in a sterile U-bottom polystyrene 96 well plate (Dean et al., 2011). The commercially obtained, deidentified human RBCs (BIOIVT Westbury, NY) were prepared as follows: 1 mL of K2EDTA whole blood from a healthy donor was centrifuged at 1,600 g for 10 min and plasma was discarded. The remaining RBCs were washed 4 times with 1 ml 1×PBS (HyClone), then the pallet after the last wash was resuspended with 750 ul of 1×PBS. 2% RBCs suspension was prepared by adding 200 ul of washed cells to 9.8 mL of 1×PBS. […] of 2% RBCs were added to each well (n=3) containing diluted peptides resulting in final peptide concentration of 100, 10, and 1 μg/ml. 2% RBCs with 1×PBS alone served as the negative control (No peptide), and 2% RBC in deionized water as the positive control, leading to full lysis. The plate was incubated for 1 h at 37 C and then centrifuged at 1,000 rpm for 2 min. The supernatant was transferred to a fresh regular 96 well plate and read at OD540 as previously reported (Dean et al., 2011). Student's t-test was used to determine whether points were statistically significant.

The subject of data set [4] is E. coli O157:H7 51659. The data set can be described thus: EC50 antimicrobial activity assay (low salt, 10 mM sodium phosphate). Conditions: MDR E. coli, 3 h. Format: cell-based, Escherichia coli. The procedure:
as §1
The antimicrobial activity of the PHNX peptides and LL-37 (AnaSpec 61302) against bacteria was determined as previously described (Barksdale et al., 2016, 2017). […] Serial dilutions were then prepared in 1× Dulbecco's PBS and 8 ul of each dilution was spotted in triplicate on Tryptic Soy Agar plates, which were incubated (37 C, 24 h) and CFUs were counted (Barksdale et al., 2016, 2017). Bacterial survival at each peptide concentration was calculated based on the ratio of the number of colonies on each experimental plate and the average number of colonies observed for assay cultures lacking peptide. […] EC50 values were determined by fitting the data from the antimicrobial assays to a standard sigmoidal dose-response curve. […]

The next data set relates to MDR E. coli 51659. Format: cell-based, Escherichia coli. Conditions: MDR E. coli O157:H7 51659, Mueller Hinton Broth (high salt). The procedure:
as §1
(§3) The full range MIC activity testing of the peptides was then determined as previously reported using the Mueller Hinton Broth (BD 275730) in a 96 well plate following the CLSI protocol (Wiegand et al., 2008). Enumerated bacteria were diluted in MHB and 50 ul of 1×10^6 CFU/mL (5×10^4 CFU) was added to each well with 50 ul of a decreasing series of twofold peptide concentration. The plate was incubated for 16-20 h at 37 C and then read on a spectrophotometer at OD600 nm.

Data set [5] deals with E. coli 4157. Format: cell-based, Escherichia coli. The procedure: as §1, §3
Another data set concerns S. aureus BAA-1718. Format: cell-based, Staphylococcus aureus. Conditions: antibiotic susceptible S. aureus BAA-1718, Mueller Hinton Broth. The procedure:
as §1, §3

The test system of a further data set is S. aureus 33592. Format: cell-based, Staphylococcus aureus. As to conditions: MDR S. aureus (MRSA) 33592, Mueller Hinton Broth. The procedure: as §1, §3
In data set [6] the test system is E. coli 4157. The data set is described as follows: Antibacterial screening at 100 μg/ml. It counts as cell-based, Escherichia coli. As to conditions: peptide 100 μg/ml. The procedure:
as §1, §2

For a further data set, the system named is E. coli ATCC 25922. Conditions: E. coli ATCC 25922 (Wang et al., 2008); cited from earlier work.
Where [7] appears, read: peptide 1 μg/ml, 2% human RBCs (EDTA), 1 h.

As a reminder, the EC50 is the concentration giving half of the maximal effect. As to FIGAIASYLKKFR [PHNX-6], the EC50 with S. aureus MRSA 33592 [1] was found to be 7.95 µg/mL.
For the compound “VRLIVAVRIWRR-NH2 (C-terminus assumed) [IDR-1018, reference compound]”, the bactericidal activity in the data set on E. coli O157:H7 51659 [2] and in the data set with S. aureus MRSA 33592 [3] was 100% throughout. Also, the hemolysis entry with human red blood cells (setting [7]) is recorded as “negligible hemolysis”.
Consider FLLKLGLGKKKLL [PHNX-4], for which the hemolysis result with human red blood cells is “higher hemolytic activity”.
Consider FGKLLKLGKGLGG [PHNX-2], for which the EC50 result with E. coli O157:H7 51659 [4] and with S. aureus MRSA 33592 [1] was “no activity” throughout.
Regarding `CC[C@H](C)[C@H](NC(=O)[C@H](CCCCN)NC(=O)[C@H](CCC(=O)O)NC(=O)[C@H](CCCCN)NC(=O)[C@H](CO)NC(=O)[C@H](CCCCN)NC(=O)[C@H](CCCNC(=N)N)NC(=O)[C@H](Cc1ccccc1)NC(=O)[C@H](Cc1ccccc1)NC(=O)[C@H](CC(=O)O)NC(=O)CNC(=O)[C@H](CC(C)C)NC(=O)[C@@H](N)CC(C)C)C(=O)NCC(=O)N[C@@H](CCCCN)C(=O)N[C@@H](CCC(=O)O)C(=O)N[C@@H](Cc1ccccc1)C(=O)N[C@@H](CCCCN)C(=O)N[C@@H](CCCNC(=N)N)C(=O)N[C@H](C(=O)N[C@H](C(=O)N[C@@H](CCC(N)=O)C(=O)N[C@@H](CCCNC(=N)N)C(=O)N[C@H](C(=O)N[C@@H](CCCCN)C(=O)N[C@@H](CC(=O)O)C(=O)N[C@@H](Cc1ccccc1)C(=O)N[C@@H](CC(C)C)C(=O)N[C@@H](CCCNC(=N)N)C(=O)N[C@@H](CC(N)=O)C(=O)N[C@@H](CC(C)C)C(=O)N[C@H](C(=O)N1CCC[C@H]1C(=O)N[C@@H](CCCNC(=N)N)C(=O)N[C@H](C(=O)N[C@@H](CCC(=O)O)C(=O)N[C@@H](CO)C(=O)O)[C@@H](C)O)C(C)C)[C@@H](C)CC)C(C)C)[C@@H](C)CC` [LL-37, reference compound], the hemolysis result is “negligible hemolysis” in the data set on human red blood cells (setting [7]) and “approximately 40%” in the data set on human red blood cells (peptide 100 μg/ml, 2% human RBCs (EDTA), 1 h).
By MIC is commonly meant the smallest concentration in the dilution series that meets the test's criterion for growth inhibition. For the compound GVVDIIKGAGKKFAKGLAGKIANKK [PHNX-7], the MIC in the data set with MDR E. coli 51659 is over 64 µg/mL. In addition, in the data set with human red blood cells, the hemolysis entry is “higher hemolytic activity”. Moreover, in the data set with S. aureus MRSA 33592 [1], the EC50 stood at 2.09 µg/mL.
With FLIKILKGGKGGK [PHNX-5], the hemolysis result in the data set with human red blood cells is reported as “higher hemolytic activity”. Also, the EC50 with S. aureus MRSA 33592 [1] is over 10 µg/mL.
On to `CC[C@H](C)[C@H](NC(=O)[C@H](CCCCN)NC(=O)[C@H](CC(=O)O)NC(=O)[C@H](CC(C)C)NC(=O)[C@H](CC(C)C)NC(=O)[C@H](CCC(N)=O)NC(=O)CNC(=O)[C@H](C)NC(=O)[C@H](CC(C)C)NC(=O)[C@H](CC(N)=O)NC(=O)[C@H](CCCCN)NC(=O)[C@H](C)NC(=O)[C@H](C)NC(=O)[C@H](CC(N)=O)NC(=O)[C@H](CCCCN)NC(=O)[C@@H](NC(=O)[C@@H](NC(=O)[C@H](CC(=O)O)NC(=O)[C@H](CCSC)NC(=O)[C@H](CC(C)C)NC(=O)CN)[C@@H](C)O)C(C)C)C(=O)N[C@@H](CCCCN)C(=O)N[C@H]1CSSC[C@@H](C(=O)O)NC(=O)CNC(=O)[C@H]([C@@H](C)O)NC(=O)[C@H]([C@@H](C)CC)NC(=O)[C@H](CCCCN)NC1=O` [PHNX-8] (H-GLMDTVKNAAKNLAGQLLDKIKCKITGC-OH; disulfide 23-28 (inferred); N-terminus and C-terminus assumed), for which the MIC was 32 µg/mL (≈ 10.9 µM) with E. coli 4157 [5] (4157), “without any activity; also recorded: no activity” against S. aureus BAA-1718 and “without any activity; also recorded: no activity” against S. aureus 33592. For the same compound, the “growth inhibition in the screen (in words)” value with E. coli 4157 [6] (E. coli 4157) was “showed activity”; in the data set with E. coli O157:H7 51659 [2] (peptide 100 μg/ml, MDR E. coli 51659), “showed activity”. The bacterial survival is listed as about 0% in the data set on E. coli 4157 [6] (antibiotic susceptible E. coli 4157) and about 0% in the data set on E. coli O157:H7 51659 [2] (peptide 100 μg/ml, antibiotic resistant E. coli O157:H7 51659). Besides, the hemolysis entry with human red blood cells is given as “higher hemolytic activity”.
“KRFKKFFRKLKKSVKKRAKEFFKKPRVIGVSIPF [BF-CATH, reference compound]”: the MIC result was “strong antimicrobial activity” in the data set with MDR E. coli 51659; “strong antimicrobial activity” in the data set with E. coli 4157 [5] (antibiotic susceptible E. coli 4157, Mueller Hinton Broth); “not very effective” in the data set with S. aureus BAA-1718; “not very effective” in the data set on S. aureus 33592. For the same compound, the bactericidal activity in the data set on E. coli O157:H7 51659 [2] and with S. aureus MRSA 33592 [3] was 100% each time. For the same compound, the “previously reported antimicrobial activity level” value in the data set with E. coli ATCC 25922 was 2.3 µg/mL.
Take FGKLLKLGKGLKG [PHNX-3]: the EC50 entry in the data set on E. coli O157:H7 51659 [4] and in the data set on S. aureus MRSA 33592 [1] was “no activity” throughout.
